ChEMBL document CHEMBL1201862, “PubChem BioAssay data set” (2004)
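1) Cells in 96-well plates. 2) Compound, 48 h, 5 concentrations. 3) Linear interpolation between surrounding doses. 4) Unreached endpoint = highest concentration. GI50 marks 50% less growth.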 The source made the active and inactive calls. No stated cut-off is given here; in the data, active = GI50 up to about 1.1 µM and inactive = higher.

Tests used:
Experiment in all cases: growth of human tumour cells (NCI), 48 h
HOP-18 = system: HOP-18
A498 = system: A498
HT-29 = system: HT-29
OVCAR-8 = system: OVCAR-8
LXFL 529 = system: LXFL 529
HOP-92 = system: HOP-92
UACC-62 = system: UACC-62
OVCAR-5 = system: OVCAR-5
DMS-273 = system: DMS-273
HCT-116 = system: HCT-116
M19-MEL = system: M19-MEL
NCI-H226 = system: NCI-H226
SNB-19 = system: SNB-19
SK-MEL-28 = system: SK-MEL-28
M14 = system: M14
CCRF-CEM = system: CCRF-CEM
HCT-15 = system: HCT-15
SN12C = system: SN12C
DMS-114 = system: DMS-114
ACHN = system: ACHN
OVCAR-4 = system: OVCAR-4
786-0 = system: 786-0
K562 = system: K562
EKVX = system: EKVX
KM-20L2 = system: KM-20L2
IGROV-1 = system: IGROV-1
SF-539 = system: SF-539
SF-268 = system: SF-268
UACC-257 = system: UACC-257
LOX IMVI = system: LOX IMVI
SF-295 = system: SF-295
CAKI-1 = system: CAKI-1
UO-31 = system: UO-31
NCI-H522 = system: NCI-H522
Malme-3M = system: Malme-3M
SNB-78 = system: SNB-78
HOP-62 = system: HOP-62
NCI-H23 = system: NCI-H23
COLO 205 = system: COLO 205
MOLT-4 = system: MOLT-4
HL-60 = system: HL-60
NCI-H460 = system: NCI-H460
KM12 = system: KM12
OVCAR-3 = system: OVCAR-3
U-251 = system: U-251
HCC 2998 = system: HCC 2998
SW-620 = system: SW-620
SK-MEL-5 = system: SK-MEL-5
SK-MEL-2 = system: SK-MEL-2
SNB-75 = system: SNB-75
A549 = system: A549
RPMI-8226 = system: RPMI-8226
DLD-1 = system: DLD-1
RXF 393 = system: RXF 393
SK-OV-3 = system: SK-OV-3
TK-10 = system: TK-10
SR = system: SR

With CSc1ccc2c(cc1=O)C(NC(=O)c1cc(O)c(OC(=O)O)c(O)c1)CCc1cc(O)c(O)c(O)c1-2 (stereo not given) the GI50 (HOP-18) was > 89.9 µM (inactive), the GI50 (A498) was 36.1 µM (inactive) and the GI50 (HT-29) was 20 µM (inactive). The GI50 (OVCAR-8) was 28.9 µM (inactive), the GI50 (LXFL 529) was 16.5 µM (inactive) and the GI50 (HOP-92) was 22.8 µM (inactive). For the same compound, the GI50 (UACC-62) was 14.7 µM (inactive), the GI50 (OVCAR-5) was > 8.99 µM (inactive) and the GI50 (DMS-273) was 17 µM (inactive). For the same compound, the GI50 (HCT-116) was 16.5 µM (inactive), the GI50 (M19-MEL) was 13.6 µM (inactive) and the GI50 (NCI-H226) was 18.8 µM (inactive). For the same compound, the GI50 (SNB-19) was 50.9 µM (inactive), the GI50 (SK-MEL-28) was 24.4 µM (inactive) and the GI50 (M14) was 12.1 µM (inactive). The GI50 (CCRF-CEM) was 11.9 µM (inactive), the GI50 (HCT-15) was 16.1 µM and the GI50 (SN12C) was 13.3 µM (inactive). For the same compound, the GI50 (DMS-114) was 15.2 µM (inactive), the GI50 (ACHN) was 33.8 µM (inactive) and the GI50 (OVCAR-4) was 20.2 µM (inactive). For the same compound, the GI50 (786-0) was 34 µM (inactive), the GI50 (K562) was 12.2 µM (inactive) and the GI50 (EKVX) was 20 µM (inactive). For the same compound, the GI50 (KM-20L2) was 24.9 µM (inactive), the GI50 (IGROV-1) was 19.7 µM (inactive) and the GI50 (SF-539) was 26.5 µM (inactive). For the same compound, the GI50 (SF-268) was 19.8 µM (inactive), the GI50 (UACC-257) was 31 µM (inactive) and the GI50 (LOX IMVI) was 12.9 µM (inactive). The GI50 (SF-295) was 17.4 µM (inactive), the GI50 (CAKI-1) was 19.3 µM (inactive) and the GI50 (UO-31) was 15.3 µM (inactive). For the same compound, the GI50 (NCI-H522) was 5.87 µM (inactive), the GI50 (Malme-3M) was 35 µM (inactive) and the GI50 (SNB-78) was 33.3 µM (inactive). For the same compound, the GI50 (HOP-62) was 19 µM (inactive), the GI50 (NCI-H23) was 19.2 µM (inactive) and the GI50 (COLO 205) was 30.3 µM (inactive). The GI50 (MOLT-4) was 16.7 µM (inactive), the GI50 (HL-60) was 10 µM (inactive) and the GI50 (NCI-H460) was 20.7 µM (inactive). For the same compound, the GI50 (KM12) was 22.8 µM (inactive), the GI50 (OVCAR-3) was 18.2 µM (inactive) and the GI50 (U-251) was 16 µM (inactive). The GI50 (HCC 2998) was > 89.9 µM (inactive), the GI50 (SW-620) was 14 µM (inactive) and the GI50 (SK-MEL-5) was 15.7 µM (inactive). For the same compound, the GI50 (SK-MEL-2) was > 89.9 µM (inactive), the GI50 (SNB-75) was 32.7 µM (inactive) and the GI50 (A549) was 19.5 µM (inactive). The GI50 (RPMI-8226) was 14.5 µM (inactive), the GI50 (DLD-1) was 18.5 µM (inactive) and the GI50 (RXF 393) was 25.9 µM (inactive). The GI50 (SK-OV-3) was > 89.9 µM (inactive) and the GI50 (TK-10) was > 89.9 µM (inactive).

CCO[C@@H]1OC(=O)[C@@](C)(C(C)=O)[C@@H]1C was tested, and the GI50 (A498) was > 100 µM (inactive), the GI50 (HT-29) was 17.5 µM (inactive) and the GI50 (LXFL 529) was 19.5 µM (inactive). The GI50 (HOP-92) was 26.1 µM (inactive), the GI50 (UACC-62) was 20.9 µM (inactive) and the GI50 (OVCAR-5) was 60 µM (inactive). For the same compound, the GI50 (M19-MEL) was 19.1 µM (inactive), the GI50 (SNB-19) was 19.1 µM (inactive) and the GI50 (SK-MEL-28) was 15.7 µM (inactive). The GI50 (M14) was 26 µM (inactive), the GI50 (CCRF-CEM) was 13 µM (inactive) and the GI50 (DMS-114) was 19.1 µM (inactive). The GI50 (ACHN) was > 100 µM (inactive), the GI50 (OVCAR-4) was 29 µM (inactive) and the GI50 (K562) was 30.5 µM (inactive). For the same compound, the GI50 (KM-20L2) was 41.4 µM (inactive), the GI50 (IGROV-1) was 36.5 µM (inactive) and the GI50 (SF-268) was 18.3 µM (inactive). The GI50 (UACC-257) was 24.4 µM (inactive), the GI50 (SF-295) was 20.1 µM (inactive) and the GI50 (SR) was 25.5 µM (inactive). For the same compound, the GI50 (UO-31) was 37.9 µM (inactive), the GI50 (NCI-H522) was > 100 µM (inactive) and the GI50 (Malme-3M) was 23.3 µM (inactive). For the same compound, the GI50 (SNB-78) was 25 µM (inactive), the GI50 (HOP-62) was 20.8 µM (inactive) and the GI50 (NCI-H23) was 14.5 µM (inactive). For the same compound, the GI50 (COLO 205) was 87.7 µM (inactive), the GI50 (MOLT-4) was 19.2 µM (inactive) and the GI50 (HL-60) was 23 µM (inactive). The GI50 (NCI-H460) was > 100 µM (inactive), the GI50 (KM12) was 28.4 µM (inactive) and the GI50 (OVCAR-3) was 14.4 µM (inactive). For the same compound, the GI50 (U-251) was 21 µM (inactive), the GI50 (SK-MEL-2) was 20.4 µM (inactive) and the GI50 (SNB-75) was 3.27 µM (inactive). For the same compound, the GI50 (RPMI-8226) was 18.7 µM (inactive), the GI50 (RXF 393) was 24.1 µM (inactive) and the GI50 (SK-OV-3) was 43.6 µM (inactive).
